Experimental data reported in patent US11053204B2, “Pyrimidinyloxy benzene derivatives as herbicides” (FMC Corporation, priority 2015, dated 2021).

Columns and labels:
Assay type in all cases: in vivo
[1] = test system: lambsquarters (Chenopodium album); assay: Test C postemergence, plant response rating; settings: for Plant response rating, Lambsquarters: scale 0 to 100; for Lambsquarters plant response rating: scale 0 to 100 (0 no effect, 100 complete control)
How it was run: (§1)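 After sowing in loam–sand blend or silt loam, pots were sprayed preemergence; separately grown 1- to 4-leaf plants were sprayed postemergence. Following 13 to 15 d under greenhouse conditions, injury was rated visually on a 0 to 100 scale.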

[2] = test system: oilseed rape (Brassica napus); assay: Test C postemergence, plant response rating; settings: for Plant response rating, Oilseed Rape: scale 0 to 100; for Oilseed Rape plant response rating: scale 0 to 100 (0 no effect, 100 complete control)
How it was run: as §1

[3] = test system: velvetleaf (Abutilon theophrasti); assay: Test C postemergence, plant response rating; settings: for Plant response rating, Velvetleaf: scale 0 to 100; for Velvetleaf plant response rating: scale 0 to 100 (0 no effect, 100 complete control)
How it was run: as §1

[4] = test system: foxtail, giant (giant foxtail, Setaria faberii); assay: Test C postemergence, plant response rating; settings: for Plant response rating, Foxtail, Giant: scale 0 to 100; for Foxtail, Giant plant response rating: scale 0 to 100 (0 no effect, 100 complete control)
How it was run: as §1

[5] = test system: blackgrass (Alopecurus myosuroides); assay: Test C postemergence, plant response rating; settings: for Plant response rating, Blackgrass: scale 0 to 100; for Blackgrass plant response rating: scale 0 to 100 (0 no effect, 100 complete control)
How it was run: as §1

[6] = test system: corn (Zea mays); assay: Test C postemergence, plant response rating; settings: for Plant response rating, Corn: scale 0 to 100; for Corn plant response rating: scale 0 to 100 (0 no effect, 100 complete control)
How it was run: as §1

[7] = test system: nutsedge, yellow (yellow nutsedge, Cyperus esculentus); assay: Test C postemergence, plant response rating; settings: for Plant response rating, Nutsedge, Yellow: scale 0 to 100; for Nutsedge, Yellow plant response rating: scale 0 to 100 (0 no effect, 100 complete control)
How it was run: as §1

[8] = test system: chickweed (common chickweed, Stellaria media); assay: Test C postemergence, plant response rating; settings: for Plant response rating, Chickweed: scale 0 to 100; for Chickweed plant response rating: scale 0 to 100 (0 no effect, 100 complete control)
How it was run: as §1

[9] = test system: wheat (winter wheat, Triticum aestivum); assay: Test C postemergence, plant response rating; settings: for Plant response rating, Wheat: scale 0 to 100; for Wheat plant response rating: scale 0 to 100 (0 no effect, 100 complete control)
How it was run: as §1

[10] = test system: soybean (Glycine max); assay: Test C postemergence, plant response rating; settings: for Plant response rating, Soybean: scale 0 to 100; for Soybean plant response rating: scale 0 to 100 (0 no effect, 100 complete control)
How it was run: as §1

[11] = test system: ragweed (common ragweed, Ambrosia elatior); assay: Test C postemergence, plant response rating; settings: for Plant response rating, Ragweed: scale 0 to 100; for Ragweed plant response rating: scale 0 to 100 (0 no effect, 100 complete control)
How it was run: as §1

[12] = test system: kochia (Kochia scoparia); assay: Test C postemergence, plant response rating; settings: for Plant response rating, Kochia: scale 0 to 100; for Kochia plant response rating: scale 0 to 100 (0 no effect, 100 complete control)
How it was run: as §1

[13] = test system: waterhemp (common waterhemp, Amaranthus rudis); assay: Test C postemergence, plant response rating; settings: for Plant response rating, Waterhemp: scale 0 to 100; for Waterhemp plant response rating: scale 0 to 100 (0 no effect, 100 complete control)
How it was run: as §1

[14] = test system: galium (catchweed bedstraw, Galium aparine); assay: Test C postemergence, plant response rating; settings: for Plant response rating, Galium: scale 0 to 100; for Galium plant response rating: scale 0 to 100 (0 no effect, 100 complete control)
How it was run: as §1

[15] = test system: morningglory (Ipomoea coccinea); assay: Test C postemergence, plant response rating; settings: for Plant response rating, Morningglory: scale 0 to 100; for Morningglory plant response rating: scale 0 to 100 (0 no effect, 100 complete control)
How it was run: as §1

[16] = test system: oat, wild (wild oat Avena fatua); assay: Test C postemergence, plant response rating; settings: for Plant response rating, Oat, Wild: scale 0 to 100; for Oat, Wild plant response rating: scale 0 to 100 (0 no effect, 100 complete control)
How it was run: as §1

[17] = test system: pigweed, palmer (palmer pigweed, Amaranthus palmeri); assay: Test C preemergence, plant response rating
[18] = test system: surinam grass (Brachiaria decumbens); assay: Test C preemergence, plant response rating
[19] = test system: wild poinsettia (Euphorbia heterophylla); assay: Test C preemergence, plant response rating
[20] = test system: windgrass (Apera spica-venti); assay: Test C preemergence, plant response rating
[21] = test system: oat, wild (wild oat Avena fatua); assay: Test C preemergence, plant response rating

Structure (SMILES): CCCC(=O)c1c(Br)cccc1Oc1ncc(Cl)cn1 [Compound 75]
- Plant response rating, Lambsquarters ([1]; 16 g ai/ha): 50
- Plant response rating, Lambsquarters ([1]; 31 g ai/ha): 55
- Lambsquarters plant response rating ([1]; 62 g ai/ha): 70
- Lambsquarters plant response rating ([1]; 125 g ai/ha): 90
- Plant response rating, Oilseed Rape ([2]; 16 g ai/ha): 60
- Plant response rating, Oilseed Rape ([2]; 31 g ai/ha): 80
- Oilseed Rape plant response rating ([2]; 62 g ai/ha): 80
- Oilseed Rape plant response rating ([2]; 125 g ai/ha): 95
- Plant response rating, Velvetleaf ([3]; 16 g ai/ha): 30
- Plant response rating, Velvetleaf ([3]; 31 g ai/ha): 35
- Velvetleaf plant response rating ([3]; 62 g ai/ha): 70
- Velvetleaf plant response rating ([3]; 125 g ai/ha): 75
- Plant response rating, Foxtail, Giant ([4]; 16 g ai/ha): 10
- Plant response rating, Foxtail, Giant ([4]; 31 g ai/ha): 10
- Foxtail, Giant plant response rating ([4]; 62 g ai/ha): 10
- Foxtail, Giant plant response rating ([4]; 125 g ai/ha): 25
- Plant response rating, Blackgrass ([5]; 16 g ai/ha): 0
- Plant response rating, Blackgrass ([5]; 31 g ai/ha): 5
- Blackgrass plant response rating ([5]; 62 g ai/ha): 10
- Blackgrass plant response rating ([5]; 125 g ai/ha): 30
- Plant response rating, Corn ([6]; 16 g ai/ha): 10
- Plant response rating, Corn ([6]; 31 g ai/ha): 15
- Corn plant response rating ([6]; 62 g ai/ha): 15
- Corn plant response rating ([6]; 125 g ai/ha): 20
- Plant response rating, Nutsedge, Yellow ([7]; 16 g ai/ha): 0
- Plant response rating, Nutsedge, Yellow ([7]; 31 g ai/ha): 0
- Nutsedge, Yellow plant response rating ([7]; 62 g ai/ha): 0
- Nutsedge, Yellow plant response rating ([7]; 125 g ai/ha): 5
- Plant response rating, Chickweed ([8]; 16 g ai/ha): 60
- Plant response rating, Chickweed ([8]; 31 g ai/ha): 85
- Chickweed plant response rating ([8]; 62 g ai/ha): 90
- Chickweed plant response rating ([8]; 125 g ai/ha): 98
- Plant response rating, Wheat ([9]; 16 g ai/ha): 0
- Plant response rating, Wheat ([9]; 31 g ai/ha): 5
- Wheat plant response rating ([9]; 62 g ai/ha): 0
- Wheat plant response rating ([9]; 125 g ai/ha): 10
- Plant response rating, Soybean ([10]; 16 g ai/ha): 50
- Plant response rating, Soybean ([10]; 31 g ai/ha): 65
- Soybean plant response rating ([10]; 62 g ai/ha): 85
- Soybean plant response rating ([10]; 125 g ai/ha): 85
- Plant response rating, Ragweed ([11]; 16 g ai/ha): 5
- Plant response rating, Ragweed ([11]; 31 g ai/ha): 10
- Ragweed plant response rating ([11]; 62 g ai/ha): 50
- Ragweed plant response rating ([11]; 125 g ai/ha): 60
- Plant response rating, Kochia ([12]; 16 g ai/ha): 75
- Plant response rating, Kochia ([12]; 31 g ai/ha): 85
- Kochia plant response rating ([12]; 62 g ai/ha): 90
- Kochia plant response rating ([12]; 125 g ai/ha): 98
- Plant response rating, Waterhemp ([13]; 16 g ai/ha): 85
- Plant response rating, Waterhemp ([13]; 31 g ai/ha): 90
- Waterhemp plant response rating ([13]; 62 g ai/ha): 90
- Waterhemp plant response rating ([13]; 125 g ai/ha): 95
- Plant response rating, Galium ([14]; 16 g ai/ha): 40
- Plant response rating, Galium ([14]; 31 g ai/ha): 70
- Galium plant response rating ([14]; 62 g ai/ha): 70
- Galium plant response rating ([14]; 125 g ai/ha): 80
- Plant response rating, Morningglory ([15]; 16 g ai/ha): 5
- Plant response rating, Morningglory ([15]; 31 g ai/ha): 15
- Morningglory plant response rating ([15]; 62 g ai/ha): 20
- Morningglory plant response rating ([15]; 125 g ai/ha): 65
- Plant response rating, Oat, Wild ([16]; 16 g ai/ha): 5
- Plant response rating, Oat, Wild ([16]; 31 g ai/ha): 35
- Oat, Wild plant response rating ([16]; 62 g ai/ha): 40
- Oat, Wild plant response rating ([16]; 125 g ai/ha): 35
- Plant response rating, Pigweed, Palmer ([17]; 16 g ai/ha, scale 0 to 100): 70
- Plant response rating, Pigweed, Palmer ([17]; 31 g ai/ha, scale 0 to 100): 100
- Plant response rating, Pigweed, Palmer ([17]; 62 g ai/ha, scale 0 to 100): 95
- Plant response rating, Pigweed, Palmer ([17]; 125 g ai/ha, scale of 0 to 100): 100
- Plant response rating, Surinam Grass ([18]; 16 g ai/ha, scale 0 to 100): 0
- Plant response rating, Surinam Grass ([18]; 31 g ai/ha, scale 0 to 100): 30
- Plant response rating, Surinam Grass ([18]; 62 g ai/ha, scale 0 to 100): 35
- Plant response rating, Surinam Grass ([18]; 125 g ai/ha, scale of 0 to 100): 80
- Plant response rating, Poinsettia, Wild ([19]; 16 g ai/ha, scale 0 to 100): 10
- Plant response rating, Poinsettia, Wild ([19]; 31 g ai/ha, scale 0 to 100): 40
- Plant response rating, Poinsettia, Wild ([19]; 62 g ai/ha, scale 0 to 100): 35
- Plant response rating, Poinsettia, Wild ([19]; 125 g ai/ha, scale of 0 to 100): 35
- Plant response rating, Windgrass ([20]; 16 g ai/ha, scale 0 to 100): 5
- Plant response rating, Windgrass ([20]; 31 g ai/ha, scale 0 to 100): 45
- Plant response rating, Windgrass ([20]; 62 g ai/ha, scale 0 to 100): 100
- Plant response rating, Windgrass ([20]; 125 g ai/ha, scale of 0 to 100): 100
- Plant response rating, Oat, Wild ([21]; 16 g ai/ha, scale 0 to 100): 0
- Plant response rating, Oat, Wild ([21]; 31 g ai/ha, scale 0 to 100): 0
- Plant response rating, Oat, Wild ([21]; 62 g ai/ha, scale 0 to 100): 0
- Plant response rating, Oat, Wild ([21]; 125 g ai/ha, scale of 0 to 100): 5
